Measurements reported in patent publication US20080175794A1, “Substituted Pyridazinyl- and Pyrimidinyl-Quinolin-4-Ylamine Analogues” (NEUROGEN CORPORATION, priority 2005, published 2008).

biological target: T1, human capsaicin receptor (Homo sapiens, UniProt Q8NER1); test: Calcium mobilization assay, determination of antagonist activity (Example 6); assay type: cell-based; settings: Table III; assay provided in Example 6; cells expressing human capsaicin receptor, capsaicin at EC50
T1 construct: expressed in transfected cells
Description: A cDNA encoding full length human capsaicin receptor (SEQ ID NO:1, 2 or 3 of U.S. Pat. No. 6,482,611) is subcloned in the plasmid pBK-CMV (Stratagene, La Jolla, Calif.) for recombinant expression in mammalian cells.
Human embryonic kidney (HEK293) cells are transfected with the pBK-CMV expression construct encoding the full length human capsaicin receptor using standard methods. The transfected cells are selected over two weeks in media containing G418 (400 μg/ml) to obtain a pool of stably transfected cells. Independent clones are isolated from this pool by limiting dilution to obtain clonal stable cell lines for use in subsequent experiments.
Cells transfected with expression plasmids (as described in Example 4) and thereby expressing human capsaicin receptor are seeded and grown to 70-90% confluency in FALCON black-walled, clear-bottomed 96-well plates (#3904, BECTON-DICKINSON, Franklin Lakes, N.J.). The culture medium is emptied from the 96 well plates and FLUO-3 AM calcium sensitive dye (Molecular Probes, Eugene, Oreg.) is added to each well (dye solution: 1 mg FLUO-3 AM, 440 μL DMSO and 440 μl 20% pluronic acid in DMSO, diluted 1:250 in Krebs-Ringer HEPES (KRH) buffer (25 mM HEPES, […], 0.96 mM NaH2PO4, 1 mM MgSO4, 2 mM CaCl2, 5 mM glucose, 1 mM probenecid, pH 7.4), 50 μl diluted solution per well). Plates are covered with aluminum foil and incubated at 37° C. for 1-2 hours in an environment containing 5% CO2. After the incubation, the dye is emptied from the plates, and the cells are washed once with KRH buffer, and resuspended in KRH buffer.
To measure the ability of a test compound to agonize or antagonize a calcium mobilization response in cells expressing capsaicin receptors to capsaicin or other vanilloid agonist, the EC50 of the agonist capsaicin is first determined. An additional 20 μl of KRH buffer and 1 μl DMSO is added to each well of cells, prepared as described above. 100 μl capsaicin in KRH buffer is automatically transferred by the FLIPR instrument to each well. Capsaicin-induced calcium mobilization is monitored using either FLUOROSKAN ASCENT (Labsystems; Franklin, Mass.) or FLIPR (fluorometric imaging plate reader system; Molecular Devices, Sunnyvale, Calif.) instruments. Data obtained between 30 and 60 seconds after agonist application are used to generate an 8-point concentration response curve, with final capsaicin concentrations of 1 nM to 3 μM. KALEIDAGRAPH software (Synergy Software, Reading, Pa.) is used to fit the data to the equation: […]
Test compounds are dissolved in DMSO, diluted in 20 μl KRH buffer so that the final concentration of test compounds in the assay well is between […] and 5 μM, and added to cells prepared as described above. The 96 well plates containing prepared cells and test compounds are incubated in the dark at room temperature for 0.5 to 6 hours. It is important that the incubation not continue beyond 6 hours. Just prior to determining the fluorescence response, 100 μl capsaicin in KRH buffer at twice the EC50 concentration determined as described above is automatically added by the FLIPR instrument to each well of the 96 well plate for a final sample volume of 200 μl and a final capsaicin concentration equal to the EC50. The final concentration of test compounds in the assay wells is between 1 μM and 5 μM. […] The concentration of antagonist required to provide a 50% decrease, relative to the response observed in the presence of capsaicin and without antagonist, is the IC50 for the antagonist, and is preferably below 1 micromolar, 100 nanomolar, 10 nanomolar or 1 nanomolar.

T1 sequence (Q8NER1 whole entry): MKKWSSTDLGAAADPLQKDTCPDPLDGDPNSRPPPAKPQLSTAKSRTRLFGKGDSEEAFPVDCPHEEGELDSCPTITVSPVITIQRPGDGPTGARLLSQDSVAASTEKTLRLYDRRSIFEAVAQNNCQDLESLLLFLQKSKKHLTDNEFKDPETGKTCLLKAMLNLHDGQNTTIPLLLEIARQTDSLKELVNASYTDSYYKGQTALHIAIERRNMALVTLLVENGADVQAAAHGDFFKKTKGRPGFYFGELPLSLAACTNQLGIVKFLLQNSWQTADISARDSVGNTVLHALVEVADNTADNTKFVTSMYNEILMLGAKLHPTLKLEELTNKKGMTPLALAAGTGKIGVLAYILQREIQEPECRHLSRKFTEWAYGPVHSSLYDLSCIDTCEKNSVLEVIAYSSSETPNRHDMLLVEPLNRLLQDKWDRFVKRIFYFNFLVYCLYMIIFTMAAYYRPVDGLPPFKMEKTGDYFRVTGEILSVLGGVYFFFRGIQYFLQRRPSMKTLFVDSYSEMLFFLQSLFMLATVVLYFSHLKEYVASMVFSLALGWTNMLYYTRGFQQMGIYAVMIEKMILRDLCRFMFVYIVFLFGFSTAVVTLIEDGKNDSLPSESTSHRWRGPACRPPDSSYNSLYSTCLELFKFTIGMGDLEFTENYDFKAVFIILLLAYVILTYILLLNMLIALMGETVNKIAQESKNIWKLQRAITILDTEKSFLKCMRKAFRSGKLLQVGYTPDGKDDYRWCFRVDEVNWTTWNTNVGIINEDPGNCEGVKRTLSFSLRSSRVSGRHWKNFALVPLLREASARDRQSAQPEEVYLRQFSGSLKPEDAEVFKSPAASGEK

IC50, < 1 µM:
COCCCNc1cc(C(F)(F)F)c(-c2cnc3c(Nc4ccc(C(F)(F)F)cn4)ccnc3n2)nn1 [Compound 164, 3-{6-[(3-methoxypropyl)amino]-4-(trifluoromethyl)pyridazin-3-yl}-N-[5-(trifluoromethyl)pyridin-2-yl]pyrido[2,3-b]pyrazin-8-amine]
COCCN(C)c1cc(C(F)(F)F)c(-c2cnc3c(Nc4ccc(C(F)(F)F)cn4)ccnc3n2)nn1 [Compound 181, 3-{6-[(2-methoxyethyl)(methyl)amino]-4-(trifluoromethyl)pyridazin-3-yl}-N-[5-(trifluoromethyl)pyridin-2-yl]pyrido[2,3-b]pyrazin-8-amine]
CC(CN(C)C)Nc1cc(C(F)(F)F)c(-c2cnc3c(Nc4ccc(C(F)(F)F)cn4)ccnc3n2)nn1 (centres unmarked) [Compound 82, N1,N1-dimethyl-N2-[5-(trifluoromethyl)-6-(8-{[5-(trifluoromethyl)pyridin-2-yl]amino}pyrido[2,3-b]pyrazin-3-yl)pyridazin-3-yl]propane-1,2-diamine]
FC(F)(F)c1ccc(Nc2ccnc3nc(-c4nnc(N5CCCC5)cc4C(F)(F)F)cnc23)nc1 [Compound 120, 3-[6-pyrrolidin-1-yl-4-(trifluoromethyl)pyridazin-3-yl]-N-[5-(trifluoromethyl)pyridin-2-yl]pyrido[2,3-b]pyrazin-8-amine]
OCCCNc1cc(C(F)(F)F)c(-c2cnc3c(Nc4ccc(C(F)(F)F)cn4)ccnc3n2)nn1 [Compound 169, 3-{[5-(trifluoromethyl)-6-(8-{[5-(trifluoromethyl)pyridin-2-yl]amino}pyrido[2,3-b]pyrazin-3-yl)pyridazin-3-yl]amino}propan-1-ol]
CCC(C)CNc1cc(C(F)(F)F)c(-c2cnc3c(Nc4ccc(C(F)(F)F)cn4)ccnc3n2)nn1 (centres unmarked) [Compound 154, 3-{6-[(2-methylbutyl)amino]-4-(trifluoromethyl)pyridazin-3-yl}-N-[5-(trifluoromethyl)pyridin-2-yl]pyrido[2,3-b]pyrazin-8-amine]
CCCNc1cc(C(F)(F)F)c(-c2cnc3c(Nc4ccc(C(F)(F)F)cn4)ccnc3n2)nn1 [Compound 102, 3-[6-(propylamino)-4-(trifluoromethyl)pyridazin-3-yl]-N-[5-(trifluoromethyl)pyridin-2-yl]pyrido[2,3-b]pyrazin-8-amine]
FC(F)(F)c1ccc(Nc2ccnc3nc(-c4nnc(NC5CCCC5)cc4C(F)(F)F)cnc23)nc1 [Compound 109, 3-[6-(cyclopentylamino)-4-(trifluoromethyl)pyridazin-3-yl]-N-[5-(trifluoromethyl)pyridin-2-yl]pyrido[2,3-b]pyrazin-8-amine]
C=CCN1CCN(c2cc(C(F)(F)F)c(-c3cnc4c(Nc5ccc(C(F)(F)F)cn5)ccnc4n3)nn2)CC1 [Compound 86, 3-[6-(4-allylpiperazin-1-yl)-4-(trifluoromethyl)pyridazin-3-yl]-N-[5-(trifluoromethyl)pyridin-2-yl]pyrido[2,3-b]pyrazin-8-amine]
N#Cc1cc(C(F)(F)F)c(-c2cnc3c(Nc4ccc(C(F)(F)F)cn4)ccnc3n2)nn1 [Compound 55, 5-(trifluoromethyl)-6-(8-{[5-(trifluoromethyl)pyridin-2-yl]amino}pyrido[2,3-b]pyrazin-3-yl)pyridazine-3-carbonitrile]
COC1CCN(c2cc(C(F)(F)F)c(-c3cnc4c(Nc5ccc(C(F)(F)F)cn5)ccnc4n3)nn2)CC1 [Compound 188, 3-[6-(4-methoxypiperidin-1-yl)-4-(trifluoromethyl)pyridazin-3-yl]-N-[5-(trifluoromethyl)pyridin-2-yl]pyrido[2,3-b]pyrazin-8-amine]
FC(F)(F)c1ccc(Nc2ccnc3nc(-c4nnc(NCc5ccccn5)cc4C(F)(F)F)cnc23)nc1 [Compound 80, 3-{6-[(pyridin-2-ylmethyl)amino]-4-(trifluoromethyl)pyridazin-3-yl}-N-[5-(trifluoromethyl)pyridin-2-yl]pyrido[2,3-b]pyrazin-8-amine]
CC(C)N(CCO)c1cc(C(F)(F)F)c(-c2cnc3c(Nc4ccc(C(F)(F)F)cn4)ccnc3n2)nn1 [Compound 197, 2-{isopropyl[5-(trifluoromethyl)-6-(8-{[5-(trifluoromethyl)pyridin-2-yl]amino}pyrido[2,3-b]pyrazin-3-yl)pyridazin-3-yl]amino}ethanol]
CN(C)CCN(C)c1cc(C(F)(F)F)c(-c2cnc3c(Nc4ccc(C(F)(F)F)cn4)ccnc3n2)nn1 [Compound 150, N,N,N′-trimethyl-N′-[5-(trifluoromethyl)-6-(8-{[5-(trifluoromethyl)pyridin-2-yl]amino}pyrido[2,3-b]pyrazin-3-yl)pyridazin-3-yl]ethane-1,2-diamine]
CC1CCN1c1cc(C(F)(F)F)c(-c2cnc3c(Nc4ccc(C(F)(F)F)cn4)ccnc3n2)nn1 (centres unmarked) [Compound 189, 3-[6-(2-methylazetidin-1-yl)-4-(trifluoromethyl)pyridazin-3-yl]-N-[5-(trifluoromethyl)pyridin-2-yl]pyrido[2,3-b]pyrazin-8-amine]
CNC(=O)CN(C)c1cc(C(F)(F)F)c(-c2cnc3c(Nc4ccc(C(F)(F)F)cn4)ccnc3n2)nn1 [Compound 58, N,N2-dimethyl-N2-[5-(trifluoromethyl)-6-(8-{[5-(trifluoromethyl)pyridin-2-yl]amino}pyrido[2,3-b]pyrazin-3-yl)pyridazin-3-yl]glycinamide]
CCCN(CCO)c1cc(C(F)(F)F)c(-c2cnc3c(Nc4ccc(C(F)(F)F)cn4)ccnc3n2)nn1 [Compound 134, 2-{propyl[5-(trifluoromethyl)-6-(8-{[5-(trifluoromethyl)pyridin-2-yl]amino}pyrido[2,3-b]pyrazin-3-yl)pyridazin-3-yl]amino}ethanol]
CC1CCN(c2cc(C(F)(F)F)c(-c3cnc4c(Nc5ccc(C(F)(F)F)cn5)ccnc4n3)nn2)CC1 [Compound 177, 3-[6-(4-methylpiperidin-1-yl)-4-(trifluoromethyl)pyridazin-3-yl]-N-[5-(trifluoromethyl)pyridin-2-yl]pyrido[2,3-b]pyrazin-8-amine]
CCOc1cc(C(F)(F)F)c(-c2cnc3c(Nc4ccc(C(F)(F)F)cn4)ccnc3n2)nn1 [Compound 50, 3-[6-ethoxy-4-(trifluoromethyl)pyridazin-3-yl]-N-[5-(trifluoromethyl)pyridin-2-yl]pyrido[2,3-b]pyrazin-8-amine]
CCCOCCNc1cc(C(F)(F)F)c(-c2cnc3c(Nc4ccc(C(F)(F)F)cn4)ccnc3n2)nn1 [Compound 52, 3-[6-[(2-propoxyethyl)amino]-4-(trifluoromethyl)pyridazin-3-yl]-N-[5-(trifluoromethyl)pyridin-2-yl]pyrido[2,3-b]pyrazin-8-amine]
CCN1CCCC1CNc1cc(C(F)(F)F)c(-c2cnc3c(Nc4ccc(C(F)(F)F)cn4)ccnc3n2)nn1 (centres unmarked) [Compound 76, 3-[6-{[(1-ethylpyrrolidin-2-yl)methyl]amino}-4-(trifluoromethyl)pyridazin-3-yl]-N-[5-(trifluoromethyl)pyridin-2-yl]pyrido[2,3-b]pyrazin-8-amine]
CN(CC(N)=O)c1cc(C(F)(F)F)c(-c2cnc3c(Nc4ccc(C(F)(F)F)cn4)ccnc3n2)nn1 [Compound 57, N2-methyl-N2-[5-(trifluoromethyl)-6-(8-{[5-(trifluoromethyl)pyridin-2-yl]amino}pyrido[2,3-b]pyrazin-3-yl)pyridazin-3-yl]glycinamide]

same assay, conditions: assay provided in Example 6; cells expressing human capsaicin receptor, capsaicin at EC50

IC50, < 1 µM:
FC(F)(F)c1ccc(Nc2ccnc3nc(-c4ncncc4C(F)(F)F)ccc23)nc1 [Compound 5, N-[5-(Trifluoromethyl)pyridin-2-yl]-7-[5-(trifluoromethyl)pyrimidin-4-yl]-1,8-naphthyridin-4-amine]
